Source: ChEMBL document CHEMBL4190379 (Bioorg Med Chem Lett, 2018)

Columns and labels:
[1] = biological target: T1, E3 ubiquitin-protein ligase TRIM33 (Homo sapiens) (UniProt Q9UPN9); test: Binding affinity to human TRIM33-phd-bromo expressed in bacterial system assessed as remaining binding level at 1 uM by BROMOscan assay relative to control
T1 sequence (whole entry): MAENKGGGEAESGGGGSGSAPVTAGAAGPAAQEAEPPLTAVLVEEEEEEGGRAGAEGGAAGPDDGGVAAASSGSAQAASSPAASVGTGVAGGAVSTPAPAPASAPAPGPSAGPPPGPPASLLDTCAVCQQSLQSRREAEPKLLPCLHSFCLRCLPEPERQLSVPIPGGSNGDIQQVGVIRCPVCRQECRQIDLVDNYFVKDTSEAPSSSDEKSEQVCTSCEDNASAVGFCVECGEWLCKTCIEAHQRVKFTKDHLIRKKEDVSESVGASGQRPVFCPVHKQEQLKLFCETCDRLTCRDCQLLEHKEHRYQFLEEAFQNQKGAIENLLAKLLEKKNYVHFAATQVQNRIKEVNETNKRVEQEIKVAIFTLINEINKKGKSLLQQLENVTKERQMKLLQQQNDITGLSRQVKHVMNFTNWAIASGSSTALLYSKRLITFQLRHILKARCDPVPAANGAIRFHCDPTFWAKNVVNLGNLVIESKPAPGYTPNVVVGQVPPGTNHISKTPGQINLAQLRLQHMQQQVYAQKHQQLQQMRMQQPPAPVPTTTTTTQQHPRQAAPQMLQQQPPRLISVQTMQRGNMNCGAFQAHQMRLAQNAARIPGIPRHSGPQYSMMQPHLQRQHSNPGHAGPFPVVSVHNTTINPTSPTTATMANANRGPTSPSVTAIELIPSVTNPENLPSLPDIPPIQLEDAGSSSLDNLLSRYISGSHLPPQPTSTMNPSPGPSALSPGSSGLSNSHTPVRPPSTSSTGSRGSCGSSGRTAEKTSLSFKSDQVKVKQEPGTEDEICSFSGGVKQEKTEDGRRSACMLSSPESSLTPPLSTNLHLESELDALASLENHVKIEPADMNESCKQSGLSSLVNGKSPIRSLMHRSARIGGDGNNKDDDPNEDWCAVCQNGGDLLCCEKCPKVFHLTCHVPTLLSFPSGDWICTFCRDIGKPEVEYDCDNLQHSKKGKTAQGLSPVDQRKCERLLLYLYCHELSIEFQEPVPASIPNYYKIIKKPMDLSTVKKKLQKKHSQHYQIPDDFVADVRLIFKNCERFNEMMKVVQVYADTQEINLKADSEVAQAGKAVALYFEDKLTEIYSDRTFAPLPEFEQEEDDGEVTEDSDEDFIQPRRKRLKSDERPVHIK

[2] = biological target: Nucleosome-remodeling factor subunit BPTF (Homo sapiens) (UniProt Q12830); test: Binding affinity to human FALZ expressed in bacterial system assessed as remaining binding level at 1 uM by BROMOscan assay relative to control
[3] = biological target: T2, ATPase family AAA domain-containing protein 2 (Homo sapiens) (UniProt Q6PL18); test: Binding affinity to human ATAD2A expressed in bacterial system assessed as remaining binding level at 1 uM by BROMOscan assay relative to control
T2 sequence (whole entry): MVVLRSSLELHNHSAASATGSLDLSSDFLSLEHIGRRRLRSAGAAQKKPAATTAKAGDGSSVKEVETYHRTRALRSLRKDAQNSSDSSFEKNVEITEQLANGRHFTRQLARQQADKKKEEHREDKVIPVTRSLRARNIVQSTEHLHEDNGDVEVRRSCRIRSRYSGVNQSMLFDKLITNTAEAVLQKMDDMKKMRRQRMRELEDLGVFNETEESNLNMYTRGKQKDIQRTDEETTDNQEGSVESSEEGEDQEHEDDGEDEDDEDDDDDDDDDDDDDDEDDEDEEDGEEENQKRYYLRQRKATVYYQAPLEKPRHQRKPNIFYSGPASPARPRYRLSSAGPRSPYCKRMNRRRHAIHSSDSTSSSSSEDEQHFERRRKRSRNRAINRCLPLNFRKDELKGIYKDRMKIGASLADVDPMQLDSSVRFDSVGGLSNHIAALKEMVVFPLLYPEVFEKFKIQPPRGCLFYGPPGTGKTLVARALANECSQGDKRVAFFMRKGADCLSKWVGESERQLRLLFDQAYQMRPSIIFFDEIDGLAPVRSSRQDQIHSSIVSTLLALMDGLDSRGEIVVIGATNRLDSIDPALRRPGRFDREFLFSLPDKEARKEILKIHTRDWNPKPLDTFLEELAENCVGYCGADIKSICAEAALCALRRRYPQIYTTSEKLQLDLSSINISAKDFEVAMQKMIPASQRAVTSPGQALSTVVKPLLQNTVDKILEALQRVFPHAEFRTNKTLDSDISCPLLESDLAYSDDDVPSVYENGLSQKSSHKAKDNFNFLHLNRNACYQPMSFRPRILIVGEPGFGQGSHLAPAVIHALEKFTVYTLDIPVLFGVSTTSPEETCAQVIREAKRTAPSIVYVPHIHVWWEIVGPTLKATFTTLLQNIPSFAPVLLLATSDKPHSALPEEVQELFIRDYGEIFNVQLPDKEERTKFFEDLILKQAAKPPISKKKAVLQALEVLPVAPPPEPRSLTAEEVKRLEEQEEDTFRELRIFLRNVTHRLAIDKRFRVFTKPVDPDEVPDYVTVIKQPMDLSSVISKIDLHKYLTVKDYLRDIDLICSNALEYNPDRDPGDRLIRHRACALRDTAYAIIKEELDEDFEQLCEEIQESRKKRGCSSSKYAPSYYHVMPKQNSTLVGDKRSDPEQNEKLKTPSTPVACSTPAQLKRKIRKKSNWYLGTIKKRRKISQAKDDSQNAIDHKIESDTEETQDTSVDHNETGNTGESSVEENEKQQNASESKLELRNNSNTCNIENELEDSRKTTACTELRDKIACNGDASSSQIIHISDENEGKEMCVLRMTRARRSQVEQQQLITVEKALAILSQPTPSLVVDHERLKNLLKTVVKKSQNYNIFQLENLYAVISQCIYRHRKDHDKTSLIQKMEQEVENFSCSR

[4] = biological target: Transcription initiation factor TFIID subunit 1 (Homo sapiens) (UniProt P21675); test: Binding affinity to human TAF1 bromodomain 2 expressed in bacterial system assessed as remaining binding level at 1 uM by BROMOscan assay relative to control
[5] = biological target: Histone acetyltransferase p300 (Homo sapiens) (UniProt Q09472); test: Binding affinity to human EP300 expressed in bacterial system assessed as remaining binding level at 1 uM by BROMOscan assay relative to control
[6] = biological target: Bromodomain-containing protein 2 (Homo sapiens, UniProt P25440); test: Binding affinity to BRD2 bromodomain 1 to 2 (G73 to A560 amino acids) (unknown origin) using Alexa647-labeled BET-inhibitor as fluorescent probe by bromodomain TR-FRET binding assay
[7] = Oral bioavailability in mouse at 10 mg/kg; type: ADME, organism-based; settings: in vivo

Histone acetyltransferase p300 (Homo sapiens), sequence (Q09472 whole entry, the tested form may be a part): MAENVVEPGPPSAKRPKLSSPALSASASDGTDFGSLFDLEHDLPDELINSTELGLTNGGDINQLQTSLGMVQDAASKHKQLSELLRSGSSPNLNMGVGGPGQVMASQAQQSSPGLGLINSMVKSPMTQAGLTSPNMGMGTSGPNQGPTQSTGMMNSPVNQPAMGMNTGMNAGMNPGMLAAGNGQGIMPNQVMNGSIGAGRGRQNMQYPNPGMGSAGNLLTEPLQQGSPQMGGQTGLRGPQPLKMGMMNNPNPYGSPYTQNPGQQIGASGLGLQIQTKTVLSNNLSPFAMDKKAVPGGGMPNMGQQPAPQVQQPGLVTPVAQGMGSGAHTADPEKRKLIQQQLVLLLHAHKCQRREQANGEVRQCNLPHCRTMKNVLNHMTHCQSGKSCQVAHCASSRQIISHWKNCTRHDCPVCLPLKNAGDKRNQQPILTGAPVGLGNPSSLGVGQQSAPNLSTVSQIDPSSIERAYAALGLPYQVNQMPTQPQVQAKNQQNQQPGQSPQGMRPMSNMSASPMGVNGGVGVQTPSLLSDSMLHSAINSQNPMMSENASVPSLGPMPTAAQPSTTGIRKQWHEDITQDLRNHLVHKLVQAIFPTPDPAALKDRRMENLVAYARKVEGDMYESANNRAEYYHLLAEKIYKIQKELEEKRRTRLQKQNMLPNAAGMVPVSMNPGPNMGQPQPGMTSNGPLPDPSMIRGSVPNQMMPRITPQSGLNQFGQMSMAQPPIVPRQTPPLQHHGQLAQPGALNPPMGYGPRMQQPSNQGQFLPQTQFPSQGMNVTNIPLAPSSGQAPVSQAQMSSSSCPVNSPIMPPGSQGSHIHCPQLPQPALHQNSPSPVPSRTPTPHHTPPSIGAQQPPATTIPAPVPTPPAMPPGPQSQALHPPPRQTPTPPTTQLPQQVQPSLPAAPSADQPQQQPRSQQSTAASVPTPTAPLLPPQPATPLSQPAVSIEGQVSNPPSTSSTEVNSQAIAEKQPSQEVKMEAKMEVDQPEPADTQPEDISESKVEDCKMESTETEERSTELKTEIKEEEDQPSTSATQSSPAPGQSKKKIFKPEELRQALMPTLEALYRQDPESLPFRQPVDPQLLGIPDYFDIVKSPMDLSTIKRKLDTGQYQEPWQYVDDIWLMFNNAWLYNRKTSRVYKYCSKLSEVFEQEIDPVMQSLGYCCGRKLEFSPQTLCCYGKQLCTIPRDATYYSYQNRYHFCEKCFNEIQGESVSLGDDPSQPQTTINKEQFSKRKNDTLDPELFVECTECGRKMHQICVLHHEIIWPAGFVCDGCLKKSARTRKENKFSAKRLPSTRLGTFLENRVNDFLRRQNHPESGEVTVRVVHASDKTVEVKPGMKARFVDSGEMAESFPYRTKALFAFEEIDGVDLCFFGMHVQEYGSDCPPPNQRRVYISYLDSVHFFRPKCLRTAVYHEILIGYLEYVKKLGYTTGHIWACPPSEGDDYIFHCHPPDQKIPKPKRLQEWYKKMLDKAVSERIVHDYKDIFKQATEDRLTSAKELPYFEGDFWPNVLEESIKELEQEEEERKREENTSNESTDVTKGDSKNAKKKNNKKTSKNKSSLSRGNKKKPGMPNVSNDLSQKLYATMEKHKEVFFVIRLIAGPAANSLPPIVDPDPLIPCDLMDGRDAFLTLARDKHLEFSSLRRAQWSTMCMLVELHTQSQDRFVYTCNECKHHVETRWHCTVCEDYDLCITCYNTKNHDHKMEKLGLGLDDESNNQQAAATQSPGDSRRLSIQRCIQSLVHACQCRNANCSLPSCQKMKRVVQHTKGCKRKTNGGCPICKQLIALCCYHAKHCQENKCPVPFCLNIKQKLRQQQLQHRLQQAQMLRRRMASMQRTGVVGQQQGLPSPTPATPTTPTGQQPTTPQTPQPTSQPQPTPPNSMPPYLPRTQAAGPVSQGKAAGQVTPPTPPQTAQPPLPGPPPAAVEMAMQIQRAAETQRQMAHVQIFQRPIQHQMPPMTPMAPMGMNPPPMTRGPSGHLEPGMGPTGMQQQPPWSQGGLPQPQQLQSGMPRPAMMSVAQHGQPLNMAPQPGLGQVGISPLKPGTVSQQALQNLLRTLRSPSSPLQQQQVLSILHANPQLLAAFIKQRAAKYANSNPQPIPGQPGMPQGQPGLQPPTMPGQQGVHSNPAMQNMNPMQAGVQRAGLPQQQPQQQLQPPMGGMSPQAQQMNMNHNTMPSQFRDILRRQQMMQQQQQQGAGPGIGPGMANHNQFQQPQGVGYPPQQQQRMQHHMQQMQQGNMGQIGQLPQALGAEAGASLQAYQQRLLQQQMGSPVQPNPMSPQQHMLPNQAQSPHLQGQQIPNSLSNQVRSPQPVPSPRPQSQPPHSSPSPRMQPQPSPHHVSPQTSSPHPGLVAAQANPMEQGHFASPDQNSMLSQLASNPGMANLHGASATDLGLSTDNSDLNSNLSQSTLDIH
Transcription initiation factor TFIID subunit 1 (Homo sapiens), sequence (P21675 whole entry): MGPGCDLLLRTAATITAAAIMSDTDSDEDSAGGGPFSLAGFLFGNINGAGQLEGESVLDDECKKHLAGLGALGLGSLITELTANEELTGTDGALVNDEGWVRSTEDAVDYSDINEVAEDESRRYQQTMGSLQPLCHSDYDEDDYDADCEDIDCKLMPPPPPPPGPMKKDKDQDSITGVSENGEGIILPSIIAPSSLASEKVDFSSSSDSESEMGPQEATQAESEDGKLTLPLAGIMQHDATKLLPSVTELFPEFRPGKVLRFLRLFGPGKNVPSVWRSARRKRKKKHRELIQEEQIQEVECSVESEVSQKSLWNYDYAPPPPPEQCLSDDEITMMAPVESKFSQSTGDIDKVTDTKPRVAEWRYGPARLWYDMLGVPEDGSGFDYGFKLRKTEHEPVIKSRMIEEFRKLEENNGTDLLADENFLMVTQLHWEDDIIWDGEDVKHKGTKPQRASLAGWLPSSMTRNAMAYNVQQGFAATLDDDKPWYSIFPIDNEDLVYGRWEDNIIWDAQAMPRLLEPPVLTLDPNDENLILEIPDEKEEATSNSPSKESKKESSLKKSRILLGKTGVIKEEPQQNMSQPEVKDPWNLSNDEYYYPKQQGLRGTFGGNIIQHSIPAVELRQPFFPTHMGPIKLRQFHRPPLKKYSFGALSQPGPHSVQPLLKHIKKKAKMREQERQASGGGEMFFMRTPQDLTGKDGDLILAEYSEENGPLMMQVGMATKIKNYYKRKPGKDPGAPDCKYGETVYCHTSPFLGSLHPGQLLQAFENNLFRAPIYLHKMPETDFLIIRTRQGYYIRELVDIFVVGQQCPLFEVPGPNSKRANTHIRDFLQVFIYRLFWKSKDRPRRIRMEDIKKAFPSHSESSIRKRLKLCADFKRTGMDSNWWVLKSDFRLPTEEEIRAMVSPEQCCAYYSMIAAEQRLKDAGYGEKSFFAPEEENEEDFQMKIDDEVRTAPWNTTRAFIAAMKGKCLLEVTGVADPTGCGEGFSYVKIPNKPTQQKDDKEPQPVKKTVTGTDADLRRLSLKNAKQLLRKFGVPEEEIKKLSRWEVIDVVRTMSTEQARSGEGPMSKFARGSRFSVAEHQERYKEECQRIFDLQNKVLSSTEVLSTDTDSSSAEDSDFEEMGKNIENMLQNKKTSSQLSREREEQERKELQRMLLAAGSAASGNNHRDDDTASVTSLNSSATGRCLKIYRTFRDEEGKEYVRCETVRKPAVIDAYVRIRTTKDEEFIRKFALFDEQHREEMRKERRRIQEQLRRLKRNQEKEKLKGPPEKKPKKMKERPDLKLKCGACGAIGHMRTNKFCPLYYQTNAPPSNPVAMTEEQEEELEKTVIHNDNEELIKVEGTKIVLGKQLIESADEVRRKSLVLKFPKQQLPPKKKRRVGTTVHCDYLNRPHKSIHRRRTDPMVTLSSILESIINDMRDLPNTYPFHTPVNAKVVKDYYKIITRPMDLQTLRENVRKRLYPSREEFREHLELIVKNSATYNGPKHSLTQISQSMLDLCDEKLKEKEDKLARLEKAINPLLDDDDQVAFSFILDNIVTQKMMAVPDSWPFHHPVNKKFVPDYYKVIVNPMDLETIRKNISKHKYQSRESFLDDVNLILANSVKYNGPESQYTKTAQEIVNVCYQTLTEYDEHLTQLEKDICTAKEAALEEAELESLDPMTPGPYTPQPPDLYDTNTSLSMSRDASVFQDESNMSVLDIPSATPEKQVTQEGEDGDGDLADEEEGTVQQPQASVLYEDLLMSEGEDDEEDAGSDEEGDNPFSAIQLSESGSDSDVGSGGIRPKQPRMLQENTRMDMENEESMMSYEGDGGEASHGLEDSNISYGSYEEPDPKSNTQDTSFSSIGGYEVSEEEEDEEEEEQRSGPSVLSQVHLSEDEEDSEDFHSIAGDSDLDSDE
Bromodomain-containing protein 2, sequence (P25440 whole entry, the tested form may be a part): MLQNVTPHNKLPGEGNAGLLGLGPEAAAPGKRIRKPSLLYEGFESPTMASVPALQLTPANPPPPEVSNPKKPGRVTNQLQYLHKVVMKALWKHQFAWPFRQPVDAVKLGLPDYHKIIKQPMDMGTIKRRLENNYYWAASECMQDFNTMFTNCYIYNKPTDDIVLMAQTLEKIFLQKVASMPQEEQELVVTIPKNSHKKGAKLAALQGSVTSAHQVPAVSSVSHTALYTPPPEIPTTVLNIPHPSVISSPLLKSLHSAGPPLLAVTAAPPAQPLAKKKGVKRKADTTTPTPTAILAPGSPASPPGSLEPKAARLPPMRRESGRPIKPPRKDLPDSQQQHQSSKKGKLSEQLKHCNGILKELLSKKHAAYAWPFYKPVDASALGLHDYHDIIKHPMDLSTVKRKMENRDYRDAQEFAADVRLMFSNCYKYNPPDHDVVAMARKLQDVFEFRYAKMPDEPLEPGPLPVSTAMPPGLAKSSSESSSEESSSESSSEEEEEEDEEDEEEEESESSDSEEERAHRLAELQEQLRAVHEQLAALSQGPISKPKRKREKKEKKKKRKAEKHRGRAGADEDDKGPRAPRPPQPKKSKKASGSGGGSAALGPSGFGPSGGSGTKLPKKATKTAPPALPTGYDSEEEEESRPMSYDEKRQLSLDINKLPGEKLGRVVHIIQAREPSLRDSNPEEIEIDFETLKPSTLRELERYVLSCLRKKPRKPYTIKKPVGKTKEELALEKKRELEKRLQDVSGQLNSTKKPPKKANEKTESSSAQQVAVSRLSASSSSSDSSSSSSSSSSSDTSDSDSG

| SMILES | Activity [1] [%] | Activity [2] [%] | Activity [3] [%] | Activity [4] [%] | Activity [5] [%] | Ki [6] [nM] | bioavailability [7] [%] |
| --- | --- | --- | --- | --- | --- | --- | --- |
| Cn1cc2c3c(c[nH]c(=O)c31)-c1cc(CS(C)(=O)=O)ccc1N(c1ccc(F)cc1)C2 | 100 | 100 | 100 | 95 | 42 | 2.6 | 34 |
| Cn1cc2c3c(c[nH]c3c1=O)CN(c1ccc(F)cc1F)c1ccc(CS(C)(=O)=O)cc1-2 | 85 | 76 | 4.6 | 3.8 | 0 | 2.5 | 93 |
| Cn1cc2c3c(c[nH]c3c1=O)CN(c1ccccn1)c1ccc(CS(C)(=O)=O)cc1-2 | 83 | 39 | 68 | 15 | 0 | 0.48 | 32 |
